According to patent US10570179B2, “Substituted urea depsipeptide analogs as activators of the CLPP endopeptidase” (priority 2016, dated 2020):
≈ marks a conversion by molar mass, not a printed value. Read-outs that look alike come from different tables or passages of the source. Numbered stars: 1 amine (or outer) side, 2 acyl side, 3 side chain; on linkers, the order of the positions; unused ones are H or OH. Bridge positions count the residues as written; N and C are the ends. Square brackets hold non-standard residues; d marks the D form. Peptide text beside a SMILES is read from it. * marks the point of attachment. Piperazine(2S-CO,4-Me) = CN1CCN[C@H](C(=O)O)C1; NH(1,3-benzodioxol-5-yl) = c1cc2c(cc1N*)OCO2; Morpholine(3S-CO) = O=C(O)[C@@H]1COCCN1; Phe(3-Me) = Cc1cccc(C[C@H](N)C(=O)O)c1; NH(4-Cl-2-F-phenyl) = Fc1cc(Cl)ccc1N*; Pro(4R-Me) = C[C@H]1CN[C@H](C(=O)O)C1; Hyp = O=C(O)[C@@H]1C[C@@H](O)CN1; NH(4-Et-phenyl) = CCc1ccc(N*)cc1; NH(4-Me-phenyl) = Cc1ccc(N*)cc1; aThr = C[C@H](O)[C@H](N)C(=O)O; Pip = O=C(O)[C@@H]1CCCCN1; X3 = c1cc2c(cc1N*)OCCO2; CO = O=C([*:1])[*:2]

Experiments:
[1] = biological target: T1, S. aureus ClpP (Sa-ClpP) (Staphylococcus aureus, UniProt Q2G036); assay: Casein-BODIPY digestion assay (ClpP activation); assay type: biochemical
T1 construct: made in house; host or cells: E. coli BL21 (DE3)

[2] = tested on: E. faecails; assay: Minimal inhibitory concentration, microbroth dilution; assay type: cell-based; conditions: Enterococcus faecalis
How it was run: (§1)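 MIC is recorded by eye as the lowest drug concentration that stops bacterial growth. Compound is serially diluted twofold in broth, starting at 200 μM final, and bacteria are added at roughly 10^5 cfu/mL. Incubation runs overnight at 37 °C under aerobic conditions, per CLSI guidance.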

[3] = tested on: MRSA NRS70; assay: as above; assay type: cell-based; conditions: Staphylococcus aureus
How it was run: as §1

[4] = tested on: S. aureus ATCC 29213; assay: as above; assay type: cell-based; conditions: Staphylococcus aureus
How it was run: as §1

[5] = tested on: S. aureus USA 300; assay: as above; assay type: cell-based; conditions: Staphylococcus aureus
How it was run: as §1

[6] = Plasma stability assay; assay type: in vitro ADME, mouse
How it was run: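 Compounds at 10 μM final in human or mouse plasma, incubated at 37 °C and sampled at 0, 3, 24 and 48 h in triplicate. Reactions quenched with cold acetonitrile containing warfarin internal standard; parent measured by LC-MS. Half-life from least-squares first-order fit.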

[7] = MIC, read-out: Minimal Inhibitory Concentrations (μM) E. faecails
[8] = MIC, read-out: Minimal Inhibitory Concentrations (μM) MRSA NRS70
[9] = ATCC29213, MIC, read-out: Minimal Inhibitory Concentrations (μM) S. aureus ATCC 29213
[10] = USA300, MIC, read-out: Minimal Inhibitory Concentrations (μM) S. aureus USA 300

T1 sequence (Q2G036 whole entry): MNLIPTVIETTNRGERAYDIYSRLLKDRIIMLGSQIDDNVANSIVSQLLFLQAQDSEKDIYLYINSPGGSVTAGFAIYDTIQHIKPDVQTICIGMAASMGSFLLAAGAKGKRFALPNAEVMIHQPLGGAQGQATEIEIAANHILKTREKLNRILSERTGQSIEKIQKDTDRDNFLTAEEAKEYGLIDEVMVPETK

Cc1ccc(NC(=O)N[C@@H](Cc2cccc(C)c2)C(=O)N[C@@H]2C(=O)N3C[C@H](O)C[C@H]3C(=O)N3CCCC[C@H]3C(=O)N[C@@H](C)C(=O)N3C[C@H](C)C[C@H]3C(=O)O[C@H]2C)cc1 [Compound 26, (S)—N-((2R,6S,8AS,14AS,16R,20S,21S,23AS)-16-HYDROXY-2,6,21-TRIMETHYL-5,8,14,19,23-PENTAOXOOCTADECAHYDRO-1H,5H,14H,19H-PYRIDO[2,1-I]DIPYRROLO[2,1-C:2′,1′-L][1]OXA[4,7,10,13]TETRAAZACYCLOHEXADECIN-20-YL)-3-(M-TOLYL)-2-(3-(P-TOLYL)UREIDO)PROPANAMIDE] ({NH(4-Me-phenyl)-CO}-[Phe(3-Me)][aThr][Hyp][Pip]A[Pro(4R-Me)]; ester 2-C)
EC50 [1]: 650 ± 90 nM | MIC ([2]; read-out: Minimal Inhibitory Concentrations (μM) E. faecails, MIC): 5 µM (≈ 4.01 µg/mL) | MIC ([3]; read-out: Minimal Inhibitory Concentrations (μM) MRSA NRS70, MIC): 0.313 µM (≈ 0.251 µg/mL) | MIC ([4]; ATCC29213, read-out: Minimal Inhibitory Concentrations (μM) S. aureus ATCC 29213, MIC): 0.313 µM (≈ 0.251 µg/mL) | MIC ([5]; USA300, read-out: Minimal Inhibitory Concentrations (μM) S. aureus USA 300, MIC): 2.5 µM (≈ 2 µg/mL) | Mouse ([6]; plasma stability half-life, mouse plasma, 37° C.): >50 h

Cc1cccc(C[C@H](NC(=O)Nc2ccc(Cl)cc2F)C(=O)N[C@@H]2C(=O)N3CCC[C@H]3C(=O)N3CCN(C)C[C@H]3C(=O)N[C@@H](C)C(=O)N3C[C@H](C)C[C@H]3C(=O)O[C@H]2C)c1 [Compound 11, (S)-2-(3-(4-CHLORO-2-FLUOROPHENYL)UREIDO)-N-((6AS,12S,13S,15AS,17R,21S,23AS)-2,13,17,21-TETRAMETHYL-6,11,15,20,23-PENTAOXOOCTADECAHYDRO-2H,6H,11H,15H-PYRAZINO[2,1-I]DIPYRROLO[2,1-C:2′,1′-L][1]OXA[4,7,10,13]TETRAAZACYCLOHEXADECIN-12-YL)-3-(M-TOLYL)PROPANAMIDE] ({NH(4-Cl-2-F-phenyl)-CO}-[Phe(3-Me)][aThr]P[Piperazine(2S-CO,4-Me)]A[Pro(4R-Me)]; ester 2-C)
EC50 [1]: 290 ± 10 nM | MIC [2, 7]: 0.078 µM (≈ 0.0655 µg/mL) | MIC [3, 8]: 0.078 µM (≈ 0.0655 µg/mL) | MIC [4, 9]: 0.078 µM (≈ 0.0655 µg/mL) | MIC [5, 10]: 0.078 µM (≈ 0.0655 µg/mL) | Mouse ([6]; mouse, 10 μM): 36.62 h

Cc1cccc(C[C@H](NC(=O)Nc2ccc3c(c2)OCCO3)C(=O)N[C@@H]2C(=O)N3C[C@H](O)C[C@H]3C(=O)N3CCOC[C@H]3C(=O)N[C@@H](C)C(=O)N3C[C@H](C)C[C@H]3C(=O)O[C@H]2C)c1 [Compound 27, (S)-2-(3-(2,3-DIHYDROBENZO[B][1,4]DIOXIN-6-YL)UREIDO)-N-((6AS,8R,12S,13S,15AS,17R,21S,23AS)-8-HYDROXY-13,17,21-TRIMETHYL-6,11,15,20,23-PENTAOXOOCTADECAHYDRO-6H,11H,15H-[1,4]OXAZINO[3,4-I]DIPYRROLO[2,1-C:2′,1′-L][1]OXA[4,7,10,13]TETRAAZACYCLOHEXADECIN-12-YL)-3-(M-TOLYL)PROPANAMIDE] ({X3-CO}-[Phe(3-Me)][aThr][Hyp][Morpholine(3S-CO)]A[Pro(4R-Me)]; ester 2-C)
EC50 [1]: 1200 ± 100 nM | MIC [2, 7]: 2.5 µM (≈ 2.12 µg/mL) | MIC [3, 8]: 10 µM (≈ 8.48 µg/mL) | MIC [4, 9]: 10 µM (≈ 8.48 µg/mL) | MIC [5, 10]: 20 µM (≈ 17 µg/mL) | Mouse ([6]; mouse, 10 μM): >50 h

Cc1cccc(C[C@H](NC(=O)Nc2ccc3c(c2)OCO3)C(=O)N[C@H]2COC(=O)[C@@H]3C[C@@H](C)CN3C(=O)[C@H](C)NC(=O)[C@@H]3CN(C)CCN3C(=O)[C@@H]3CCCN3C2=O)c1 [Compound 17, (S)-2-(3-(BENZO[D][1,3]DIOXOL-5-YL)UREIDO)-3-(M-TOLYL)-N-((6AS,12S,15AS,17R,21S,23AS)-2,17,21-TRIMETHYL-6,11,15,20,23-PENTAOXOOCTADECAHYDRO-2H,6H,11H,15H-PYRAZINO[2,1-I]DIPYRROLO[2,1-C:2′,1′-L][1]OXA[4,7,10,13]TETRAAZACYCLOHEXADECIN-12-YL)PROPANAMIDE] ({NH(1,3-benzodioxol-5-yl)-CO}-[Phe(3-Me)]SP[Piperazine(2S-CO,4-Me)]A[Pro(4R-Me)]; ester 2-C)
EC50 [1]: 2640 ± 100 nM | MIC [2, 7]: 1.25 µM (≈ 1.02 µg/mL) | MIC [3, 8]: 5 µM (≈ 4.08 µg/mL) | MIC [4, 9]: 20 µM (≈ 16.3 µg/mL) | MIC [5, 10]: 10 µM (≈ 8.17 µg/mL) | Mouse ([6]; mouse, 10 μM): 6.46 ± 0.4 h

CCc1ccc(NC(=O)N[C@@H](Cc2cccc(C)c2)C(=O)N[C@@H]2C(=O)N3C[C@H](O)C[C@H]3C(=O)N3CCOC[C@H]3C(=O)N[C@@H](C)C(=O)N3C[C@H](C)C[C@H]3C(=O)O[C@H]2C)cc1 [Compound 24, (S)-2-(3-(4-ETHYLPHENYL)UREIDO)-N-((6AS,8R,12S,13S,15AS,17R,21S,23AS)-8-HYDROXY-13,17,21-TRIMETHYL-6,11,15,20,23-PENTAOXOOCTADECAHYDRO-6H,11H,15H-[1,4]OXAZINO[3,4-I]DIPYRROLO[2,1-C:2′,1′-L][1]OXA[4,7,10,13]TETRAAZACYCLOHEXADECIN-12-YL)-3-(M-TOLYL)PROPANAMIDE] ({NH(4-Et-phenyl)-CO}-[Phe(3-Me)][aThr][Hyp][Morpholine(3S-CO)]A[Pro(4R-Me)]; ester 2-C)
EC50 [1]: 130 ± 40 nM | MIC [2, 7]: 0.156 µM (≈ 0.128 µg/mL) | MIC [3, 8]: 0.156 µM (≈ 0.128 µg/mL) | MIC [4, 9]: 0.313 µM (≈ 0.256 µg/mL) | MIC [5, 10]: 0.313 µM (≈ 0.256 µg/mL) | Mouse ([6]; mouse, 10 μM): >50 h
